The target in experiment [1] is T1, Rac GTPase-activating protein 1 (Homo sapiens, UniProt Q9H0H5).
T1 sequence (Q9H0H5 whole entry): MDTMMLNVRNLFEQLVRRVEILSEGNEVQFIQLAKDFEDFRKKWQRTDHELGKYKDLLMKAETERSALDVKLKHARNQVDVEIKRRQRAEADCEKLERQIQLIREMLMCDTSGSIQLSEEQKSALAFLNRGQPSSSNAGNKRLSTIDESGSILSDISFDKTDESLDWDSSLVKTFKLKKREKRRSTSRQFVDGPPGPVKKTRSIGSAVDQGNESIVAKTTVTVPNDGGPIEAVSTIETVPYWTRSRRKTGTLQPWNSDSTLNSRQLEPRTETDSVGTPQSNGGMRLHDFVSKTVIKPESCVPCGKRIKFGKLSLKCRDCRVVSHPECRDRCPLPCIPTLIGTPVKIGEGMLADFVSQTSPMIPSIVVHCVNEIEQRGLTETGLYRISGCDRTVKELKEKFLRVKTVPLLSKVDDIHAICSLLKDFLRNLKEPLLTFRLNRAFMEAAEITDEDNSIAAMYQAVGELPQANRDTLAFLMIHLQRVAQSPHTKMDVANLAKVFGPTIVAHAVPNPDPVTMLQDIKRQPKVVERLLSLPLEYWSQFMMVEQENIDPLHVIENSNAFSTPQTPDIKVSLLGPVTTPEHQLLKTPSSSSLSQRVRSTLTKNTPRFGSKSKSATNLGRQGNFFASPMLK
The experiment in a line: MgcRacGAP GTPase-activating activity inhibitors, confirmation, biochemical, ADP Hunter fluorescence, primary and confirmatory (AID 624330). It counts as functional.

Experiment [2] can be described thus: inhibitors of intracellular T. cruzi replication, confirmation, NIH3T3 host cells, beta-gal luminescence (AID 2044).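 Also: intracellular parasites grown in NIH/3T3 mouse fibroblasts as host cells; luminescent beta-galactosidase reporter signal from transgenic T. cruzi replicating inside host cells; inhibitors lower the luminescence signal.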 It counts as functional, cell-based.
Experiment [3] in a line: cytotoxicity toward NIH3T3 fibroblasts, dose response, counter-screen, cell-based, ATP luminescence, mouse fibroblasts (AID 2010).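 Also: cells exposed to compound for about 90 hours before reading.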 It counts as functional. For orientation: Counterscreens check selectivity or assay interference.
Another experiment has as its target T2, Cytochrome P450 1A2 (Homo sapiens, UniProt P05177).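 Also: PubChem cytochrome P450 panel assay, CYP1A2 panel member.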
T2 sequence (P05177 whole entry): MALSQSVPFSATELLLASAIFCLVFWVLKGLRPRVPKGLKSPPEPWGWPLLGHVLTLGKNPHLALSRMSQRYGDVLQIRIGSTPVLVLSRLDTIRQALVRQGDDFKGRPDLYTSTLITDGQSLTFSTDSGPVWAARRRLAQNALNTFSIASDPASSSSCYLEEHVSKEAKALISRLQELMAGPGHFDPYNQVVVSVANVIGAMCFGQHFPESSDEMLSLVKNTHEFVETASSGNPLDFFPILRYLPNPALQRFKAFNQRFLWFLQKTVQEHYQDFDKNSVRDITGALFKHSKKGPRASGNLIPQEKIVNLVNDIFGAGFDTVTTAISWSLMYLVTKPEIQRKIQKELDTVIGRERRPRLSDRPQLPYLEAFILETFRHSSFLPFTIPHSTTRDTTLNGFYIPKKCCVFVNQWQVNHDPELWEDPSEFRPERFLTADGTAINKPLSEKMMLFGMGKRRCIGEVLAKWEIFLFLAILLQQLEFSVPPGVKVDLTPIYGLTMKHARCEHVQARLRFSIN

In another experiment the test system is Streptococcus. Description: Group A Streptococcus viability loss, dose response, counter-screen for streptokinase expression inhibitor project, luminescence, BacTiterGlo (AID 1915).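 Also: potency for reduction of bacterial viability or growth.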 It counts as functional, organism-based.
The next experiment has as its target T3, Streptokinase A (Streptococcus pyogenes serotype M1, UniProt P10520).
T3 sequence (P10520 whole entry): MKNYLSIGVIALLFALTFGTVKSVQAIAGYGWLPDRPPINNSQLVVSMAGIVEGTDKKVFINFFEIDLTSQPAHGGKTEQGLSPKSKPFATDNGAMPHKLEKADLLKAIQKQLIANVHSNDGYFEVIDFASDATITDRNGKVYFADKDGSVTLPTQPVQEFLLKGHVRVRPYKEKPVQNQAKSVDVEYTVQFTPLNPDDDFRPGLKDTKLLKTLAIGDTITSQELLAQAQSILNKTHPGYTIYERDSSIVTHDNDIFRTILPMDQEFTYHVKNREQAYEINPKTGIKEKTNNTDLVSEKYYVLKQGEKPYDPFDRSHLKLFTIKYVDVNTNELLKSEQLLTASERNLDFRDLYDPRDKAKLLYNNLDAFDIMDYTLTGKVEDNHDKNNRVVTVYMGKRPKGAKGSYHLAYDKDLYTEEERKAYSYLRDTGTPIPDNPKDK
The experiment in a line: S. pyogenes streptokinase expression inhibitors, potency, dose response, plasminogen activation absorbance, OD405 (AID 1914).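 Also: secreted streptokinase activity via plasminogen activation per viability signal from cell pellet.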 It counts as functional, Streptococcus pyogenes M1 GAS.

Experiment [4] has as its system Streptococcus sp. 'group A'. Description: growth inhibition of control SK(-) GAS strain, dose response, counter-screen for streptokinase expression inhibitor project, luminescence, kanamycin, BacTiterGlo, confirmation (AID 1900). It counts as functional, organism-based.

SMILES strings stand for the structures. “And” between values parts separate entries of the source, which are not always exact repeats. Equal entries are not always repeated. The source made the active and inactive calls. Rule as the data show it, for most assays here: actives have a measured EC50 and inactives only a lower limit.

Broadly, the IC50 is the concentration that inhibits the measured activity by half. As for `CN1CCC(N(C)CC(=O)Nc2ccc3c(c2)OC(F)(F)O3)CC1`, in experiment [1], the IC50 is 65.9 µM (active).
Broadly, the EC50 is the concentration that produces a half-maximal response. Consider `O=C(NCCCN1CCN(CCCNC(=O)c2cccc([N+](=O)[O-])c2)CC1)c1cccc([N+](=O)[O-])c1`, for which the EC50 is 1.11 µM (active) in experiment [2] and > 30 µM (not active) in experiment [3].
`Cc1onc(-c2ccccc2Cl)c1C(=O)O/N=C(\N)c1ccccc1`: the figures for the EC50 in experiment [2] and in experiment [3] were 2.34 µM (active) and > 60 µM (not active), respectively.
Broadly, the AC50 is the midpoint of the concentration-response curve, whichever way the signal moves. Consider `CCC/C=C(\CCC)C(NS(=O)(=O)c1ccc(Cl)cc1)c1ccccc1` (stereo unspecified), for which the AC50 on Cytochrome P450 1A2 is 12.6 µM (inconclusive).
Turning to `COc1ccc(CN2CCN(Cc3ccc4ccccc4c3)CC2)cc1OC`, in experiment [1], the IC50 is 76.4 µM (active).
Consider `O=C(CSc1nc2nncc-2c(O)n1-c1ccc(Cl)c(Cl)c1)NCc1ccccc1Cl`, for which the EC50 was 2.43 µM (active) in experiment [2] and > 60 µM (inconclusive) in experiment [3].
Consider `Nc1ccc(OCc2ccco2)cc1`, for which, in experiment [1], the IC50 was 49.8 µM (active).
In the case of `O=C(Nc1ccccc1N1CCCC1)c1ccc2c(c1)OCO2`, the EC50 (with Streptococcus; on Streptokinase A; in experiment [4]) was > 150 µM (not active) throughout.
As to `Cc1ccc(NP(=O)(c2ccc(N(C)C)cc2NC(=O)c2cccs2)N2CCOCC2)cc1` (stereo unspecified), the EC50 was 1.49 µM (active) in experiment [2] and > 60 µM (not active) in experiment [3].
Regarding `CC(=O)Nc1ccc(OC(=O)c2cc3ccccc3oc2=O)cc1`, the IC50 in experiment [1] was 23.2 µM (active).
Take `O=C(NC1CCCC1)C(c1ccccc1)N(Cc1cccnc1)C(=O)Cc1cccs1` (stereo unspecified): the values for the EC50 in experiment [2] and in experiment [3] were 1.45 µM (active) and > 60 µM (not active), respectively.
As to `CCCCc1sc(-c2c(C#N)c(N)nc3c2CCCCC3)cc1[N+](=O)[O-]`, the EC50 is 1.98 µM (active) in experiment [2] and > 60 µM (not active) in experiment [3].
Regarding `CC(CCN1CCN(CCO)CC1)c1ccccc1` (stereo unspecified), in experiment [1], the IC50 is 153 µM (active).
Regarding `COc1ccc(CCC(=O)N2CCN(C3CCCCC3)CC2)cc1`, the figures for the EC50 in experiment [2] and in experiment [3] were 1.53 µM (active) and > 60 µM (not active), respectively.
In the case of `Cc1ccc(NC(=O)COc2ccc(CCO)cc2-n2nc3ccccc3n2)cc1C`, the EC50 in experiment [2] is 1.61 µM (active); in experiment [3] it was > 60 µM (inconclusive).
`COc1ccc(C(=O)NCC(=O)OCC(=O)N2N=C(c3ccc(Cl)cc3)CC2c2ccco2)cc1OC` (stereo unspecified): the EC50 was > 150 µM (not active) with Streptococcus, > 150 µM (not active) on Streptokinase A and 47 µM (active) in experiment [4].
Take `CCOC(=O)C1(CCOc2ccccc2)CCN(Cc2cccc3nonc23)CC1`: the values for the EC50 in experiment [2] and in experiment [3] were 1.49 µM (active) and > 60 µM (not active), respectively.
Turning to `COc1ccccc1-c1nnc(NC(=O)CCS(=O)(=O)c2ccccc2)o1`, the EC50 (in the experiment with Streptococcus; at Streptokinase A; in experiment [4]) was > 150 µM (not active) in each case.
As for `C[C@H]1C=C2C=C[C@H](C)[C@H](CC[C@@H]3C[C@@H](O)CC(=O)O3)[C@H]2[C@@H](OC(=O)[C@@H](C)CCO)C1`, the AC50 on Cytochrome P450 1A2 was 31.6 µM (inconclusive).
Turning to `Fc1ccc(N2CCN(Cc3c[nH]c4ccccc34)CC2)cc1`, the figures for the EC50 in experiment [2] and in experiment [3] were 0.69 µM (active) and > 60 µM (not active), respectively.
Consider `O=C(CCC1CCCN(Cc2ccncc2)C1)NCc1ccc(F)c(F)c1` (stereo unspecified), for which the EC50 in experiment [2] was 0.661 µM (active); in experiment [3], > 60 µM (not active).
Regarding `CC(C)/C=C1\CC/C(=C\c2cccnc2)C1=O`, the EC50 in experiment [2] was 1.14 µM (active); in experiment [3], > 60 µM (not active).
Consider `CC(C)(C)OC(=O)NCCCC[C@H](NC(=O)c1[nH]cnc1C(=O)Nc1ccc(Cl)cc1)C(=O)OC(C)(C)C`, for which the EC50 is 8.04 µM (active) with Streptococcus, > 150 µM (not active) on Streptokinase A and 3.64 µM (active) in experiment [4].
For `O=C(Nc1ccc(-c2csc(Nc3ccc(Cl)cc3)n2)cc1)c1cccc(C(F)(F)F)c1`, the EC50 is 1.76 µM (active) in experiment [2] and 7.75 µM (active) in experiment [3].
On to `COc1c(Cl)cc(Cl)cc1C(=O)Nc1ccc(NC(=O)c2cccs2)cc1`, for which the EC50 in experiment [2] was 1.95 µM (active); in experiment [3], > 60 µM (not active).
For `COc1cccc(C(=O)C2CCCN(Cc3ccc(OC)c(Cn4cncn4)c3)C2)c1` (stereo unspecified), the EC50 in experiment [2] was 0.398 µM (active); in experiment [3] it was > 60 µM (not active).
`CC(C)Sc1cc(N2CCCC2)nc(-c2ccccc2)n1`: the figures for the EC50 (in the experiment on Streptococcus; at Streptokinase A; in experiment [4]) were > 150 µM (not active), 11.2 µM (active) and 12.3 µM (active), respectively.
As to `CCN1CCN(c2ccc(S(=O)(=O)N3CCOCC3)cc2NC(=O)COc2ccc(F)cc2Cl)CC1`, the figures for the EC50 in experiment [2] and in experiment [3] were 1.06 µM (active) and 19.2 µM (active), respectively.
The corresponding values for `Cc1ccc(S(=O)(=O)N2CCC(C(=O)Nc3ccc(S(=O)(=O)N4CCCC4)cc3)CC2)cc1C` are 0.795 µM (active) and > 30 µM (not active).
The corresponding values for `CCc1ccc2c(c1)C(c1ccc(N3CCOCC3)cc1)=NNC(c1ccncc1)=N2` are 1.5 µM (active) and > 30 µM (not active).
As to `CSc1ccc(/C=C2\CCn3c2nc2cc(C(=O)O)ccc2c3=O)cc1`, the EC50 in the experiment with Streptococcus is > 150 µM (not active); on Streptokinase A, > 150 µM (not active); in experiment [4] it was 23.1 µM (active).
`CCOC(=O)c1[nH]c2ccccc2c1N=C(S)Nc1ccccc1C`: the 50% inhibitory concentration (IC50) in experiment [1] is 65.9 µM (active).
As for `CCN1C(=O)c2ccc(C(=O)Nc3ccc(O)cc3C)cc2C1=O`, the IC50 in experiment [1] is 108 µM (active).
As to `C[C@@H]1C[C@H](OC(=O)c2ccccc2O)CC(C)(C)C1`, at Cytochrome P450 1A2, the AC50 was 12.6 µM (inconclusive).
`NS(=O)(=O)c1ccc(CCNCC(=O)N2CCC(Cc3ccccc3)CC2)cc1`: the IC50 in experiment [1] is 283 µM (active).
In the case of `Brc1ccc(OCc2ccccc2)c(CNCc2ccncc2)c1`, the EC50 is 0.802 µM (active) in experiment [2] and > 60 µM (not active) in experiment [3].
Take `COc1ccc(NC(=O)c2ccc(NC(=O)CN3CCN(c4ccc(O)cc4)CC3)cc2)cc1`: the IC50 in experiment [1] was 63 µM (active).
Take `N#CCCN1CCN(CCC#N)c2ccccc21`: the IC50 in experiment [1] is 16.1 µM (active).
For `CCCN(CCC)[C@H]1CCc2c(F)ccc(O)c2C1`, the AC50 on Cytochrome P450 1A2 is 12.6 µM (inconclusive) and 25.1 µM (inconclusive).
Take `CC(C)c1ccc(/C=N/N2CCCCC2)cc1`: the IC50 in experiment [1] was 220 µM (active).
`COc1cc(/C=N/NC(=O)c2nnn(-c3nonc3N)c2C(C)C)ccc1O`: the IC50 in experiment [1] is 31 µM (active).
Turning to `COc1cccc(/C=N/NC(=O)c2cccc([N+](=O)[O-])c2)c1OS(=O)(=O)c1ccc(C)cc1`, the AC50 on Cytochrome P450 1A2 was 6.31 µM (inconclusive).
Turning to `COc1c(-c2ccc(O)c(O)c2)oc2cc(O)cc(O)c2c1=O` [3-O-METHYLQUERCETIN], the IC50 in experiment [1] was 30.3 µM (active).
`O=C1CCc2cc(OCCCCc3nnnn3C3CCCCC3)ccc2N1` [CILOSTAZOL]: on Cytochrome P450 1A2, the AC50 was 39.8 µM (inconclusive).
Take `CC(=O)CCCCn1c(=O)c2c(ncn2C)n(C)c1=O` [PENTOXIFYLLINE]: the AC50 at Cytochrome P450 1A2 is 12.6 µM (inconclusive).
